Reference: patent US20230106943A1, “ENGINEERED ANTIMICROBIAL PEPTIDES AND USAGE THEREOF” (Peptilogics, Inc., priority 2021, published 2023)
Marks after values point to notes of the source that are not given here. No end group written: not given here.

Test: Example 4 stability of concentrated solutions: HPLC-UV Assay/RS (method 78917)
Format: physicochemical
Conditions: for HPLC-UV Assay / Related Substances Purity / Related Substances Total Impurities: 81.4 mg/mL solution
Procedure: The peptide formulation of SEQ ID NO: 1 dissolved in a saline solution with a pH of 5.0±0.1 was tested for stability under either −20° C. or 40° C. with 75% relative humidity (RH). […]

[1] = 15.3 mg/mL solution, 40° C. and 75% RH, 1 Month
[2] = 15.3 mg/mL solution, 40° C. and 75% RH, 2 Month
[3] = 15.3 mg/mL solution, 40° C. and 75% RH, 3 Month
[4] = 15.3 mg/mL solution, 40° C. and 75% RH, 6 Month
[5] = 15.3 mg/mL solution, −20° C., 0 Month
[6] = 15.3 mg/mL solution, −20° C., 1 Month
[7] = 15.3 mg/mL solution, −20° C., 2 Month
[8] = 15.3 mg/mL solution, −20° C., 3 Month
[9] = 15.3 mg/mL solution, −20° C., 6 Month
[10] = 15.3 mg/mL solution, −20° C., 9 Month
[11] = 36.7 mg/mL solution, 40° C. and 75% RH, 1 Month
[12] = 36.7 mg/mL solution, 40° C. and 75% RH, 2 Month
[13] = 36.7 mg/mL solution, 40° C. and 75% RH, 3 Month
[14] = 36.7 mg/mL solution, 40° C. and 75% RH, 6 Month
[15] = 36.7 mg/mL solution, −20° C., 0 Month
[16] = 36.7 mg/mL solution, −20° C., 1 Month
[17] = 36.7 mg/mL solution, −20° C., 2 Month
[18] = 36.7 mg/mL solution, −20° C., 3 Month
[19] = 36.7 mg/mL solution, −20° C., 6 Month
[20] = 36.7 mg/mL solution, −20° C., 9 Month
[21] = 72.4 mg/mL solution, 40° C. and 75% RH, 1 Month
[22] = 72.4 mg/mL solution, 40° C. and 75% RH, 2 Month
[23] = 72.4 mg/mL solution, 40° C. and 75% RH, 3 Month
[24] = 72.4 mg/mL solution, 40° C. and 75% RH, 6 Month
[25] = 72.4 mg/mL solution, −20° C., 0 Month
[26] = 72.4 mg/mL solution, −20° C., 1 Month
[27] = 72.4 mg/mL solution, −20° C., 2 Month
[28] = 72.4 mg/mL solution, −20° C., 3 Month
[29] = 72.4 mg/mL solution, −20° C., 6 Month
[30] = 72.4 mg/mL solution, −20° C., 9 Month

## RRWVRRVRRVWRRVVRVVRRWVRR-NH2 [SEQ ID NO: 1]
[1]
  HPLC-UV Assay/RS % Assay: 96.0%
  HPLC-UV Assay/RS % Purity: 99%
  HPLC-UV Assay/RS % Total Impurities: 1.0%
  RRT 1.02 Mean % Area: 1.0%
  RRT […] area (Inj-1): 0.97%
  RRT […] area (Inj-2): 0.95%
  SEQ ID NO: 1 % area (Inj-1): 99.03%
  SEQ ID NO: 1 % area (Inj-2): 99.05%
  SEQ ID NO: 1 Mean % Area: 99.0%
[2]
  HPLC-UV Assay/RS % Assay: 103.8%
  HPLC-UV Assay/RS % Purity: 99%
  HPLC-UV Assay/RS % Total Impurities: 1.4%
  HPLC-UV Assay/RS Impurities RRT/%, RRT 1.02: 1.02/1.0%
  HPLC-UV Assay/RS Impurities RRT/%, RRT 1.08: 1.08/0.2%
  HPLC-UV Assay/RS Impurities RRT/%, RRT 1.10: 1.10/0.2%
[3]
  HPLC-UV Assay/RS % Assay: 96.8%
  HPLC-UV Assay/RS % Purity: 99%
  HPLC-UV Assay/RS % Total Impurities: 1.3%
  HPLC-UV Assay/RS Impurities RRT/%, RRT 1.02: 1.02/1.1%
  HPLC-UV Assay/RS Impurities RRT/%, RRT 1.25: 1.25/0.2%
[4]
  % assay: 97.5%
  HPLC-UV Assay/RS % Purity: 98%
  HPLC-UV Assay/RS % Total Impurities: 2.5%
[5]
  HPLC-UV Assay/RS % Assay: 99.8%
  HPLC-UV Assay/RS % Purity: 99.0%
  HPLC-UV Assay/RS % Total Impurities: 1.0%
  RRT 1.02 Mean % Area: 1.0%
  RRT […] area (Inj-1): 1.05%
  RRT […] area (Inj-2): 1.03%
  SEQ ID NO: 1 % area (Inj-1): 98.95%
  SEQ ID NO: 1 % area (Inj-2): 98.97%
  SEQ ID NO: 1 Mean % Area: 99.0%
[6]
  HPLC-UV Assay/RS % Assay: 103.4%
  HPLC-UV Assay/RS % Purity: 99%
  HPLC-UV Assay/RS % Total Impurities: 0.9%
  RRT 1.02 Mean % Area: 0.9%
  RRT […] area (Inj-1): 0.88%
  RRT […] area (Inj-2): 0.87%
  SEQ ID NO: 1 % area (Inj-1): 99.12%
  SEQ ID NO: 1 % area (Inj-2): 99.13%
  SEQ ID NO: 1 Mean % Area: 99.1%
[7]
  HPLC-UV Assay/RS % Assay: 106.0%
  HPLC-UV Assay/RS % Purity: 99%
  HPLC-UV Assay/RS % Total Impurities: 0.9%
  HPLC-UV Assay/RS Impurities RRT/%, RRT 1.02: 1.02/0.9%
[8]
  HPLC-UV Assay/RS % Assay: 99.7%
  HPLC-UV Assay/RS % Purity: 99%
  HPLC-UV Assay/RS % Total Impurities: 0.9%
  HPLC-UV Assay/RS Impurities RRT/%, RRT 1.02: 1.02/0.9%
[9]
  HPLC-UV Assay/RS % Assay: 102.1%
  HPLC-UV Assay/RS % Purity: 99%
  HPLC-UV Assay/RS % Total Impurities: 0.9%
  HPLC-UV Assay/RS Impurities RRT/%, RRT 1.02: 1.02/0.9%
[10]
  HPLC-UV Assay/RS % Assay: 101.0%
  HPLC-UV Assay/RS % Purity: 100%
  HPLC-UV Assay/RS % Total Impurities: 0.3%
  HPLC-UV Assay/RS Impurities RRT/%, RRT 1.01: 1.01/0.3%
[11]
  % Purity: 99%
  % Total Impurities: 0.9%
  HPLC-UV % Assay: 97.5%
  RRT 1.02 impurity % area (Inj-1): 0.94 % area
  RRT 1.02 impurity % area (Inj-2): 0.91 % area
  RRT 1.02 impurity Mean % Area: 0.9 % Area
  SEQ ID NO: 1 peak % area (Inj-1): 99.06 % area
  SEQ ID NO: 1 peak % area (Inj-2): 99.09 % area
  SEQ ID NO: 1 peak Mean % Area: 99.1 % Area
[12]
  % Purity: 99%
  % Total Impurities: 1.2%
  HPLC-UV % Assay: 101.7%
[13]
  % Purity: 99%
  % Total Impurities: 1.5%
  HPLC-UV % Assay: 97.3%
[14]
  % Purity: 97%
  % Total Impurities: 3.0%
  HPLC-UV % Assay: 94.8%
[15]
  HPLC-UV Assay/RS % Assay: 97.9%
  HPLC-UV Assay/RS % Purity: 99.0%
  HPLC-UV Assay/RS % Total Impurities: 1.0%
  RRT 1.02 Mean % Area: 1.0%
  RRT […] area (Inj-1): 1.02%
  RRT […] area (Inj-2): 1.03%
  SEQ ID NO: 1 % area (Inj-1): 98.98%
  SEQ ID NO: 1 % area (Inj-2): 98.97%
  SEQ ID NO: 1 Mean % Area: 99.0%
[16]
  HPLC-UV Assay/RS % Assay: 98.6%
  HPLC-UV Assay/RS % Purity: 99%
  HPLC-UV Assay/RS % Total Impurities: 0.9%
  RRT 1.02 Mean % Area: 0.9%
  RRT […] area (Inj-1): 0.87%
  RRT […] area (Inj-2): 0.88%
  SEQ ID NO: 1 % area (Inj-1): 99.13%
  SEQ ID NO: 1 % area (Inj-2): 99.12%
  SEQ ID NO: 1 Mean % Area: 99.1%
[17]
  HPLC-UV Assay/RS % Assay: 103.2%
  HPLC-UV Assay/RS % Purity: 99%
  HPLC-UV Assay/RS % Total Impurities: 0.9%
  HPLC-UV Assay/RS Impurities RRT/%, RRT 1.02: 1.02/0.9%
[18]
  HPLC-UV Assay/RS % Assay: 101.7%
  HPLC-UV Assay/RS % Purity: 99%
  HPLC-UV Assay/RS % Total Impurities: 0.9%
  HPLC-UV Assay/RS Impurities RRT/%, RRT 1.02: 1.02/0.9%
[19]
  HPLC-UV Assay/RS % Assay: 99.8%
  HPLC-UV Assay/RS % Purity: 99%
  HPLC-UV Assay/RS % Total Impurities: 0.9%
  HPLC-UV Assay/RS Impurities RRT/%, RRT 1.02: 1.02/0.9%
[20]
  HPLC-UV Assay/RS % Assay: 96.9%
  HPLC-UV Assay/RS % Purity: 100%
  HPLC-UV Assay/RS % Total Impurities: 0.3%
  HPLC-UV Assay/RS Impurities RRT/%, RRT 1.01: 1.01/0.3%
[21]
  % Purity: 99%
  % Total Impurities: 1.1%
  HPLC-UV % Assay: 95.9%
  RRT 1.02 impurity % area (Inj-1): 0.92 % area
  RRT 1.02 impurity % area (Inj-2): 0.90 % area
  RRT 1.02 impurity Mean % Area: 0.9 % Area
  RRT 1.32 impurity % area (Inj-1): 0.17 % area
  RRT 1.32 impurity % area (Inj-2): 0.18 % area
  RRT 1.32 impurity Mean % Area: 0.2 % Area
  SEQ ID NO: 1 peak % area (Inj-1): 98.91 % area
  SEQ ID NO: 1 peak % area (Inj-2): 98.92 % area
  SEQ ID NO: 1 peak Mean % Area: 98.9 % Area
[22]
  % Purity: 99%
  % Total Impurities: 1.5%
  HPLC-UV % Assay: 98.4%
[23]
  % Purity: 98%
  % Total Impurities: 1.8%
  HPLC-UV % Assay: 90.5%
[24]
  % Purity: 96%
  % Total Impurities: 3.6%
  HPLC-UV % Assay: 87.0* %
[25]
  % Puritvy: 99.1%
  % Total Impurities: 1.0%
  HPLC-UV % Assay: 94.2%
  RRT 1.02 impurity % area (Inj-1): 0.97 % area
  RRT 1.02 impurity % area (Inj-2): 0.93 % area
  RRT 1.02 impurity Mean % Area: 1.0 % Area
  SEQ ID NO: 1 peak % area (Inj-1): 99.03 % area
  SEQ ID NO: 1 peak % area (Inj-2): 99.07 % area
  SEQ ID NO: 1 peak Mean % Area: 99.1 % Area
[26]
  % Puritvy: 99%
  HPLC-UV % Assay: 97.7%
  RRT 1.02 impurity % area (Inj-1): 0.88 % area
  RRT 1.02 impurity % area (Inj-2): 0.87 % area
  RRT 1.02 impurity Mean % Area: 0.9 % Area
  SEQ ID NO: 1 peak % area (Inj-1): 99.12 % area
  SEQ ID NO: 1 peak % area (Inj-2): 99.13 % area
  SEQ ID NO: 1 peak Mean % Area: 99.1 % Area
  Total % Impurities: 0.9%
[27]
  % Purity: 99%
  % Total Impurities: 0.9%
  HPLC-UV % Assay: 101.1%
[28]
  % Purity: 99%
  % Total Impurities: 1.0%
  HPLC-UV % Assay: 97.4%
[29]
  % Purity: 99%
  % Total Impurities: 0.9%
  HPLC-UV % Assay: 95.1%
[30]
  % Purity: 100%
  % Total Impurities: 0.5%
  HPLC-UV % Assay: 95.9%
40° C. and 75% RH, 1 Month
  HPLC-UV Assay: 102.5 % LC
  Related Substances Purity: 98%
  Related Substances Total Impurities: 1.7%
40° C. and 75% RH, 2 Month
  HPLC-UV Assay: 102.6 % LC
  Related Substances Purity: 98%
  Related Substances Total Impurities: 2.4%
40° C. and 75% RH, 3 Month
  HPLC-UV Assay: 92.0♦ % LC
  Related Substances Purity: 97%
  Related Substances Total Impurities: 2.6%
−20° C., 0 Month
  HPLC-UV Assay: 108.6 % LC
  Related Substances Purity: 99%
  Related Substances Total Impurities: 0.9%
−20° C., 1 Month
  HPLC-UV Assay: 103.8 % LC
  Related Substances Purity: 99%
  Related Substances Total Impurities: 1.0%
−20° C., 2 Month
  HPLC-UV Assay: 107.8 % LC
  Related Substances Purity: 99%
  Related Substances Total Impurities: 0.9%
−20° C., 3 Month
  HPLC-UV Assay: 104.7 % LC
  Related Substances Purity: 100%
  Related Substances Total Impurities: 0.3%
